Structures can show the parent of a compound that is named as a salt.
Assay: Pharmacokinetic study in naive mice after intraperitoneal injection
Details: 3 mg/kg; for V_F: uncorrected for bioavailability
Procedure: Nine-week-old male Swiss mice (Janvier Labs, Le Genest-Saint-Isle, France), weighing 35–45 g at the time of experimentation, were used. […] Food and tap water were given ad libitum.
Their hind legs were depilated after a 1 min application of a commercial depilatory cream and rinsed with water. Subsequently, the mice were returned to their cages to allow for recovery and complete anesthesia washout. On the day of the experiment, an initial blood sample (20–30 μL) was collected by perforation of the saphenous vein from the mice.
For each treatment group, mice were subdivided into two cohorts, with blood samples collected at distinct time intervals after injection, totaling 14 time points for pharmacokinetic modeling. Compliance with regulatory directives prevented the collection of more than eight blood samples from individual animals. […] Blood samples were acquired using heparinized capillaries containing 2 μL of sodium heparin (Panpharma, France). After collection, the samples were transferred to Eppendorf tubes and centrifuged at 3000 g and 4°C for 10 min. The recovered plasma was then stored at −80°C until analysis. At the end of the experiments, the mice were euthanized by i.p. lethal injection (150 mg/kg) of sodium pentobarbital (Doléthal, Vétoquinol SA, France).
Pharmacokinetic analysis was carried out from the average concentration values at each time point using the Phoenix WinNonLin Version 8.4 software (Certara, Princeton NJ, USA). Pharmacokinetic parameters were determined from the plasma concentration-time data using a compartmental approach and include the total area under the plasma concentration-time curve (AUC0-∞), elimination half-life (t1/2elim), total clearance (CL/F), and volume of distribution (V). CL and V were uncorrected for the bioavailability (F).

[1] = male, Swiss, mouse, in vivo, ip

Row | Structure (SMILES) | V_F (naive mice, i.p.) [L/kg] | AUC [1] [ng·h/mL] | CL/F [1] [mL/min/kg] | Cmax [1] [ng/mL] | Tmax (male, Swiss, mouse, in vivo, ip, T max, naive mice, plasma) [min] | half-life (male, Swiss, mouse, in vivo, ip, t 1/2elim, naive mice, plasma) [min] | T max (naive mice, i.p., plasma) [min] | t 1/2elim (naive mice, i.p., plasma) [min] | Time after which plasma concentrations were below the LLOQ (naive mice, i.p., LLOQ 0.5 ng/mL tiotropium, 1 ng/mL atropine) [min]
1 | CN1[C@@H]2CC[C@H]1C[C@@H](OC(=O)C(CO)c1ccccc1)C2 (stereo partly shown) [Atropine, Atropine sulfate monohydrate] | 5.204 ± 0.43 | – | – | – | – | – | – | – | –
2 | C[N+]1(C)[C@@H]2C[C@@H](OC(=O)C(O)(c3cccs3)c3cccs3)C[C@H]1[C@@H]1O[C@@H]12 [Tiotropium, Tiotropium bromide monohydrate] | 2.158 ± 0.075 | 199 | 201 ± 5 | 705 ± 22 | 4.9 | ~7.5 | 4.89 ± 0.24 | 7.43 ± 0.12 | 60
